Legend:
[1] = biological target: CYP3A4-Midazolam
[2] = biological target: CLK4 (Homo sapiens, UniProt Q9HAZ1); settings: 1 μM; Run 1, Run 2
[3] = biological target: T1, EPHB2 (Homo sapiens, UniProt P29323); settings: 1 μM; Run 1, Run 2
T1 sequence (P29323 19-1055): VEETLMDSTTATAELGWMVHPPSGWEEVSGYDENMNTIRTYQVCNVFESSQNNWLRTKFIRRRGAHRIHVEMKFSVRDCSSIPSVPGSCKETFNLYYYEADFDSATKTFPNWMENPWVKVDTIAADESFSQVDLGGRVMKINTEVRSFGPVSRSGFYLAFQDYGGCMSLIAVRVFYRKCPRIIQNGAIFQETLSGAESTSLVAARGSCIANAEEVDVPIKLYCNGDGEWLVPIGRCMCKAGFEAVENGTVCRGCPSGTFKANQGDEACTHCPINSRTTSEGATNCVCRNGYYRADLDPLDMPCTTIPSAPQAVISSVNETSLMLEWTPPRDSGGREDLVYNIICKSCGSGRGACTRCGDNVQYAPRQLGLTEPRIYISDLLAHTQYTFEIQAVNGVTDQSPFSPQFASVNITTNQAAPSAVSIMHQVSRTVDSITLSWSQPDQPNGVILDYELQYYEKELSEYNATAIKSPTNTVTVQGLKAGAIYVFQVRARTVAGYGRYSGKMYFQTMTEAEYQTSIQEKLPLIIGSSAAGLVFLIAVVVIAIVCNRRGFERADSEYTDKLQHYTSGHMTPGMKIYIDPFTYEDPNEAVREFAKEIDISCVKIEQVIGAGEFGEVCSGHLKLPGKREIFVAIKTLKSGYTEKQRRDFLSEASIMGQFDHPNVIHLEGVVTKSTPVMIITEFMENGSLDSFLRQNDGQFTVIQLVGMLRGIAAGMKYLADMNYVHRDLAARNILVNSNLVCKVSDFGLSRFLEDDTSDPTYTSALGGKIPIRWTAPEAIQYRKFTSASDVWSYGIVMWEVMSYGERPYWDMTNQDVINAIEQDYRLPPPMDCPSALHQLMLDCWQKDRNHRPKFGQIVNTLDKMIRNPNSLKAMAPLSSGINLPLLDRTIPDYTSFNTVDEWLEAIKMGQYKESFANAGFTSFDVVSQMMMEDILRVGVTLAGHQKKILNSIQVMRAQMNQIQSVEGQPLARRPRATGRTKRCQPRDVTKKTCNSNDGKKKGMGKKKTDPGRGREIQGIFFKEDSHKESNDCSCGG

[4] = biological target: T2, IKKa/CHUK (Homo sapiens, UniProt O15111); assay: biochemical; settings: read-out: % enzyme activity, 1 μM; Run 1, Run 2
T2 sequence (O15111 1-745): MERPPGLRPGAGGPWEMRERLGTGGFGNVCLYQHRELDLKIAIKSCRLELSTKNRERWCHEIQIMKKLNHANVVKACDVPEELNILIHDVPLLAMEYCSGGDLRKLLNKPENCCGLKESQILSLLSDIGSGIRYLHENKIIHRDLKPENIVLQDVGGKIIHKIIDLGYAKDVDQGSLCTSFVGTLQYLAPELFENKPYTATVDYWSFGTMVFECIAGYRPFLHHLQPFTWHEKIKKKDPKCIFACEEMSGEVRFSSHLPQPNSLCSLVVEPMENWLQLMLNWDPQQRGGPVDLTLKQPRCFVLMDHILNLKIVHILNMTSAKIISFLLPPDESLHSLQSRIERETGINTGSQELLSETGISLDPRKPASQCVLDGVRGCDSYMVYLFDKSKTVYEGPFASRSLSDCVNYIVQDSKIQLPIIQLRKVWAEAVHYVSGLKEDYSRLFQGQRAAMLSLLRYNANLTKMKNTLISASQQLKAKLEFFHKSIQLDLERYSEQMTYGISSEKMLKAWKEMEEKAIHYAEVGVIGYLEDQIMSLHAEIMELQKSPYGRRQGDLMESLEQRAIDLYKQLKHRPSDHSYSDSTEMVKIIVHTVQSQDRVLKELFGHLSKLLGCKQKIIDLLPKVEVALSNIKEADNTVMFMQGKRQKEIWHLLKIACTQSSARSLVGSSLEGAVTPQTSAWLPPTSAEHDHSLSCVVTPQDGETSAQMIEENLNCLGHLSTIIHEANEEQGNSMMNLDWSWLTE

[5] = biological target: IR (Homo sapiens, UniProt P06213); assay: biochemical; settings: read-out: % enzyme activity, 1 μM; Run 1, Run 2
[6] = biological target: PLK1 (Homo sapiens, UniProt P53350); assay: biochemical; settings: read-out: % enzyme activity, 1 μM; Run 1, Run 2
[7] = biological target: T3, RIPK4 (Homo sapiens, UniProt P57078); assay: biochemical; settings: read-out: % enzyme activity, 1 μM; Run 1, Run 2
T3 sequence (P57078 1-832): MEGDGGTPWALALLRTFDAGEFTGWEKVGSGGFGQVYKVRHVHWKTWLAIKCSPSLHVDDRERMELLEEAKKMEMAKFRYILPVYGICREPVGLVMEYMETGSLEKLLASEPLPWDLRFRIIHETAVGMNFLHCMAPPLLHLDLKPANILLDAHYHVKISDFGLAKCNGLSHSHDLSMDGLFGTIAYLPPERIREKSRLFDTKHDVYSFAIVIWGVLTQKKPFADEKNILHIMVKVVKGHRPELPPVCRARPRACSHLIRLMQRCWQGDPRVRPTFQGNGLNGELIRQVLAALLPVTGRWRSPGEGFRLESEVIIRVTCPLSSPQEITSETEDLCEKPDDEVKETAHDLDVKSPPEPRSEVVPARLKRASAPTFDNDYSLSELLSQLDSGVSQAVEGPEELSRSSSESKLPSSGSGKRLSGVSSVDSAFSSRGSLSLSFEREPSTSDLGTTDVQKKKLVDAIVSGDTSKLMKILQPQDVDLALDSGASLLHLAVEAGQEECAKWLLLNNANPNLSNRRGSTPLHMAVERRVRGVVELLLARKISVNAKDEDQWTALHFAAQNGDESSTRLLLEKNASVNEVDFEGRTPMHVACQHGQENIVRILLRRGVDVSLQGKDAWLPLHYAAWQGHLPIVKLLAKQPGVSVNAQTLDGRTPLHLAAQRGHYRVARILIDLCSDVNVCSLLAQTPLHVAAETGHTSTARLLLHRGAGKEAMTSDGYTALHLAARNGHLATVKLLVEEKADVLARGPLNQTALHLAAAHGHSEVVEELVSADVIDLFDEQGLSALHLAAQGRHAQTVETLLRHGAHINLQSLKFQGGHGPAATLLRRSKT

[8] = biological target: SGK2 (Homo sapiens, UniProt Q9HBY8); assay: biochemical; settings: read-out: % enzyme activity, 1 μM; Run 1, Run 2
Chain of SGK2 (Q9HBY8 whole entry): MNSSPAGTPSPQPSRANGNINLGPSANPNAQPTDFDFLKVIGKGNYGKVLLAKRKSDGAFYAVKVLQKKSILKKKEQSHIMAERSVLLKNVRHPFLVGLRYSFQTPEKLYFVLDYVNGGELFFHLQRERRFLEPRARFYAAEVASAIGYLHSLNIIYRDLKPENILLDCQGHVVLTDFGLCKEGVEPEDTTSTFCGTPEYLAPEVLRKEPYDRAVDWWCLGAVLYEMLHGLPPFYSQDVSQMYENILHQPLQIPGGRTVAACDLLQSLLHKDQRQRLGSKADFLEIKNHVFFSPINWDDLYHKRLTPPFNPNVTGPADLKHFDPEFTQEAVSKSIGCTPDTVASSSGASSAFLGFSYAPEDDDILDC

Chain of IR (P06213 28-1382): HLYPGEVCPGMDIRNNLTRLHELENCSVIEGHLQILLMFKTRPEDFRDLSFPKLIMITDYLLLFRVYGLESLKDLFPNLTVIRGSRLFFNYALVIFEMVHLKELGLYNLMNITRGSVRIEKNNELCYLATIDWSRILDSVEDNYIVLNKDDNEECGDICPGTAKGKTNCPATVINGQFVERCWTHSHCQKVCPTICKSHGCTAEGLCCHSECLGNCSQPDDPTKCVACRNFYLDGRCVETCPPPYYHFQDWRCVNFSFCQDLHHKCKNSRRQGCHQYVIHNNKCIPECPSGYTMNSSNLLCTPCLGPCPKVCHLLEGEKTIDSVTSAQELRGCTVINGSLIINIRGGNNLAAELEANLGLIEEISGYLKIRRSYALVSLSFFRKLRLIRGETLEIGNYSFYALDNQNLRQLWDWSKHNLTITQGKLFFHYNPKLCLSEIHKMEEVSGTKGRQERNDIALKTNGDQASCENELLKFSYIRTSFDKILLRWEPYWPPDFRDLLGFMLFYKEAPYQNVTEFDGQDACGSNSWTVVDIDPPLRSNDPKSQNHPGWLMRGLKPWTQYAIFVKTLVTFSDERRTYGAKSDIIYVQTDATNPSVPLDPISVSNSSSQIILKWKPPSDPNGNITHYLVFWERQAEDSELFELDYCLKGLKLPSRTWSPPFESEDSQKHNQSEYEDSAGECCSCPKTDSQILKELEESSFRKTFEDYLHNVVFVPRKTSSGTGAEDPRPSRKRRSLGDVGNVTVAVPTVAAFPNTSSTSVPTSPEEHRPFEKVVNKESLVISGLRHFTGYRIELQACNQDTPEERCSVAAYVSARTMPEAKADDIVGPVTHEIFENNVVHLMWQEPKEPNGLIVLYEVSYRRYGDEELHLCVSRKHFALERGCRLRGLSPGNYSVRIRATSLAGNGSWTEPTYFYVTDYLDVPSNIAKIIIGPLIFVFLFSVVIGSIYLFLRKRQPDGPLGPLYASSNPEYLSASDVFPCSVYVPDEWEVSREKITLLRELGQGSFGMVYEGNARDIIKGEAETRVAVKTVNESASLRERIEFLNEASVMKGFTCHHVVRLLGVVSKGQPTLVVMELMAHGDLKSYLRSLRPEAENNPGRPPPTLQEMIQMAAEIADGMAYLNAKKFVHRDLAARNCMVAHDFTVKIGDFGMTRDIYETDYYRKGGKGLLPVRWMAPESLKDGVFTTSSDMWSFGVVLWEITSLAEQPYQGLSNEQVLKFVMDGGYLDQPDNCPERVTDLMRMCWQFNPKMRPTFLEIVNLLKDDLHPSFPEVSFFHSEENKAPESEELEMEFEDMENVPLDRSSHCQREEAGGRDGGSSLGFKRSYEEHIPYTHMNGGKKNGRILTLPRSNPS
Chain of PLK1 (P53350 whole entry): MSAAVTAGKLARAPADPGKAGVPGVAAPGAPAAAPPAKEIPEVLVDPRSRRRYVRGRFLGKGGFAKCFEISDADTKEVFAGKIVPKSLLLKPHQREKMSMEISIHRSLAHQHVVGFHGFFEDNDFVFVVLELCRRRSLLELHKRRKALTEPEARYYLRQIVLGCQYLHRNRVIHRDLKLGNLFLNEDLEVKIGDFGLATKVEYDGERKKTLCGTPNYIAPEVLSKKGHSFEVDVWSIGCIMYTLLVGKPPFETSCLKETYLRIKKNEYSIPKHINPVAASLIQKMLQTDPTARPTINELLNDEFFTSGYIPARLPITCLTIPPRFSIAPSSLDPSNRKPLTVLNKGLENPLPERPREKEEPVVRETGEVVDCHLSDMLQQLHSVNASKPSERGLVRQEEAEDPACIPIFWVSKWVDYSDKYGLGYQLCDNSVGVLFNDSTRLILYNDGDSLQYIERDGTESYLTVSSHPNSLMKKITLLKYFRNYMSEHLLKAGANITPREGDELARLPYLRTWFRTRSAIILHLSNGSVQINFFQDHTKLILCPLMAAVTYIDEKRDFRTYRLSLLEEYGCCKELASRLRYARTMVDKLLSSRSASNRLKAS
Chain of CLK4 (Q9HAZ1 whole entry): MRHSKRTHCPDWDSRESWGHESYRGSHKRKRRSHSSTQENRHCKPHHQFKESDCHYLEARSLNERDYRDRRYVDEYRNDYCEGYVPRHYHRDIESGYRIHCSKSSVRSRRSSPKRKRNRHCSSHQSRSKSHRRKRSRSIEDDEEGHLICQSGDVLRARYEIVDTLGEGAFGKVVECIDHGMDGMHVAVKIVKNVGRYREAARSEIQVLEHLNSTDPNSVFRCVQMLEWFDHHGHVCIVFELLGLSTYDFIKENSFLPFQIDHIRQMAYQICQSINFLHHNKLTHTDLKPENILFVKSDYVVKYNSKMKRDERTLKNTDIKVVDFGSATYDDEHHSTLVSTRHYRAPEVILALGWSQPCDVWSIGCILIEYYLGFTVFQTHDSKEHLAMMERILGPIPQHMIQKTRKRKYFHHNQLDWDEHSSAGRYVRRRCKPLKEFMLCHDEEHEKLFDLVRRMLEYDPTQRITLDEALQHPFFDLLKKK

| SMILES | CYP inhibition [1] [µM] | % enzyme activity [2] [%] | % enzyme activity [3] [%] | remaining activity at 1 µM [4] [%] | remaining activity at 1 µM [5] [%] | remaining activity at 1 µM [6] [%] | remaining activity at 1 µM [7] [%] | remaining activity at 1 µM [8] [%] |
| --- | --- | --- | --- | --- | --- | --- | --- | --- |
| COc1cc(-c2cncc(-c3ccc(N4C[C@@H](C)N(C)[C@@H](C)C4)cc3)c2C)cc(F)c1C(N)=O [Compound 26c, 2-Fluoro-6-methoxy-4-(4-methyl-5-(4-((3R,5S)-3,4,5-trimethylpiperazin-1-yl)phenyl)pyridin-3-yl)benzamide] | > 50 | 91.14 | 97.40 | 87.4 | 100 | 92.7 | 86.1 | 103 |
| COc1cc(-c2cncc(-c3ccc(N4CCN(C)CC4)cc3)c2C)cc(F)c1C(N)=O [Compound 26a, 2-Fluoro-6-methoxy-4-(4-methyl-5-(4-(4-methylpiperazin-1-yl)phenyl)pyridin-3-yl)benzamide] | > 50 | 85.58 | 92.89 | 83.3 | 102 | 92.4 | 75.5 | 102 |

— PMC8213057, “Targeting ALK2: An Open Science Approach to Developing Therapeutics for the Treatment of Diffuse Intrinsic Pontine Glioma” (Journal of Medicinal Chemistry, 2020)
